Laboratory results as given in patent US9815842B2, “Pyrazolo pyrimidine derivatives and their use as MALT1 inhibitors” (Novartis AG, priority 2014, dated 2017).
Where two headings read alike, the source gives them in different places.

How the values were obtained:
[1] = target: T1, cIAP2-MALT1 fusion protein (Homo sapiens, UniProt Q9UDY8); details: read-out: NFkappaB reporter gene assay IC50; HEK293 stably expressing cIAP2-MALT1, luciferase, 24 h compound incubation
Experimental: (§1) For the measurement of compound inhibition, 0.25 μl of test compound were mixed with 12.5 μl of enzyme in wells of the 384-well plates, and incubated for 60 minutes at room temperature (22° C.). After that, 12.5 μl of substrate was added, and the enzymatic reaction was allowed to proceed for 60 minutes at room temperature (22° C.). […] The DMSO content was between 0.9 and 1% (v/v). […] The IC50 value was calculated from the plot of percentage inhibition versus inhibitor concentration using non-linear regression analysis software (Origin, OriginLab Corporation, USA). The data were fitted using a 4 Parameter Logistic Model, characterized by the following equation: y=A2+(A1−A2)/(1+(x/IC50)^p) where y is the %-inhibition at the inhibitor concentration, x. A1 is the lowest inhibition value, and A2 the maximum inhibition value.

[2] = tested on: Human IL2 promoter; test: Human IL2 promoter reporter gene assay (RGA) in Jurkat cells; assay type: cell-based; details: Jurkat clone K22 290_H23, anti-CD28 mAb + PMA stimulation 5.5 h
Outline: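 Transfected Jurkat clone K22 290_H23 cells were pre-incubated with compounds 30 min at 37 °C, then stimulated 5.5 h with anti-CD28 mAb (15E8, 3 μg/ml) plus PMA (1 μg/ml). IL2-promoter reporter activity was read as BriteLitePlus bioluminescence.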

[3] = target: C-domain of MALT1 (amino acids 329-824) (Homo sapiens (Human), UniProt Q9UDY8); test: MALT1 biochemical assay (fluorescence lifetime enzyme activity assay); details: 60 min pre-incubation, 2.5 nM enzyme, 1 μM peptide substrate
Chain of C-domain of MALT1 (amino acids 329-824) (Q9UDY8 329-824): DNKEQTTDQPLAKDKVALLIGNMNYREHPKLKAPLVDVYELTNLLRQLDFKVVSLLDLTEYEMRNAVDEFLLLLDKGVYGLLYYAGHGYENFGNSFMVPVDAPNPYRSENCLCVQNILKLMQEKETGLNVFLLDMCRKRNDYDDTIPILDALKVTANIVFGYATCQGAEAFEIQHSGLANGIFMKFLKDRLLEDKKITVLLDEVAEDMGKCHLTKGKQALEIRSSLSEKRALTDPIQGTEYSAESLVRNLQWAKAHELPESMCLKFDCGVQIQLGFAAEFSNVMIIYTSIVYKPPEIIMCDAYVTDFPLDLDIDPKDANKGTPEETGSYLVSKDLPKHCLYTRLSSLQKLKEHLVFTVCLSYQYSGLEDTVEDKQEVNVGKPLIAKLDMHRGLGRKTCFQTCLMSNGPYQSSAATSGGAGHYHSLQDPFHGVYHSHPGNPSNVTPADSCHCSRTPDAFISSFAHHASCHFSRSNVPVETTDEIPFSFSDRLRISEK

[4] = target: T1, cIAP2-MALT1 fusion protein; test: cell-based
Experimental: as §1

T1 sequence (Q9UDY8 2-824 limits assumed): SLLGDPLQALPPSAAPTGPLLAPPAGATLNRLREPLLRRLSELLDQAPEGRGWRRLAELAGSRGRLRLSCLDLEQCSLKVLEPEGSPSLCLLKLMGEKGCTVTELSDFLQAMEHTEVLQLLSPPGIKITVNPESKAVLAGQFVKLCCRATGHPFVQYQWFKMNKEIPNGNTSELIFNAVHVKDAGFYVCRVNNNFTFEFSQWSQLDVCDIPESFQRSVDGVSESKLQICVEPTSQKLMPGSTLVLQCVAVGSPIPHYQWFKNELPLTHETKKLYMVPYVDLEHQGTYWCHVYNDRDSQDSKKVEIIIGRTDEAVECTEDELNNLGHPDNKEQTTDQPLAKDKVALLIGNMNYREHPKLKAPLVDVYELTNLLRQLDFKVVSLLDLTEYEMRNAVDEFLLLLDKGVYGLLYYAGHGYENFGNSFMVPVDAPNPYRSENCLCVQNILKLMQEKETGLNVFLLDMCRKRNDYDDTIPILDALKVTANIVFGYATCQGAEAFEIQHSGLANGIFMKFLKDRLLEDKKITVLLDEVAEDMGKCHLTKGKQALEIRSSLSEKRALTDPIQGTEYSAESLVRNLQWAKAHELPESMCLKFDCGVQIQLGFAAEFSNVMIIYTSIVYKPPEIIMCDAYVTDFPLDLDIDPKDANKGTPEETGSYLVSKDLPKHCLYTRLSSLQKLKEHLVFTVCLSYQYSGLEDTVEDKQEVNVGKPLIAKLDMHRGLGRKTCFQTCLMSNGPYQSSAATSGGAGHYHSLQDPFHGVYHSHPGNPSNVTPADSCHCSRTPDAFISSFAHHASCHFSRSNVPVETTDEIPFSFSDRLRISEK

| IC50 [1] [nM] | IC50 [2] [nM] | IC50 [3] [nM] | IC50 [4] [nM] | SMILES |
| --- | --- | --- | --- | --- |
| 354 | – | – | – | O=C(Nc1cnc(-n2nccn2)c(C(F)(F)F)c1)Nc1cnc2cc(Cl)nn2c1-c1ccco1 [Example 63, 1-(6-(2H-1,2,3-triazol-2-yl)-5-(trifluoromethyl)pyridin-3-yl)-3-(2-chloro-7-(furan-2-yl)pyrazolo[1,5-a]pyrimidin-6-yl)urea] |
| 159 | – | – | – | O=C(Nc1cnc(-n2nccn2)c(Cl)c1)Nc1cnc2cc(Cl)nn2c1C1COCCO1 (centres unmarked) [Example 43, 1-(5-chloro-6-(2H-1,2,3-triazol-2-yl)pyridin-3-yl)-3-(2-chloro-7-(1,4-dioxan-2-yl)pyrazolo[1,5-a]pyrimidin-6-yl)urea] |
| 48 | 59 | – | – | CCC(C)c1c(NC(=O)Nc2cnc(-n3nccn3)c(Cl)c2)cnc2cc(Cl)nn12 (centres unmarked) [Example 35, 1-(7-(sec-butyl)-2-chloropyrazolo[1,5-a]pyrimidin-6-yl)-3-(5-chloro-6-(2H-1,2,3-triazol-2-yl)pyridin-3-yl)urea] |
| 678 | – | – | – | COc1ncc(NC(=O)Nc2cnc3cc(Cl)nn3c2-c2ccncc2)cc1Cl [Example 69, 1-(5-chloro-6-methoxypyridin-3-yl)-3-(2-chloro-7-(pyridin-4-yl)pyrazolo[1,5-a]pyrimidin-6-yl)urea] |
| 586 | – | – | – | O=C(Nc1cnc(-n2nccn2)c(Cl)c1)Nc1cnc2cc(Cl)nn2c1C1CC12CCOC2 (centres unmarked) [Example 68, 1-(5-chloro-6-(2H-1,2,3-triazol-2-yl)pyridin-3-yl)-3-(2-chloro-7-(5-oxaspiro[2.4]heptan-1-yl)pyrazolo[1,5-a]pyrimidin-6-yl)urea] |
| 417 | – | – | – | COc1ncc(NC(=O)Nc2cnc3cc(Cl)nn3c2C2CCC(C)O2)cc1Cl (centres unmarked) [Example 87, 1-(5-chloro-6-methoxypyridin-3-yl)-3-(2-chloro-7-(5-methyltetrahydrofuran-2-yl)pyrazolo[1,5-a]pyrimidin-6-yl)urea] |
| 35 | – | – | – | CC1(c2c(NC(=O)Nc3cnc(-n4nccn4)c(Cl)c3)cnc3cc(Cl)nn23)CC1 [Example 16, 1-(5-chloro-6-(2H-1,2,3-triazol-2-yl)pyridin-3-yl)-3-(2-chloro-7-(1-methylcyclopropyl)pyrazolo[1,5-a]pyrimidin-6-yl)urea] |
| 195 | – | – | – | COCC1(c2c(NC(=O)Nc3ccnc(C(F)(F)F)c3)cnc3cc(Cl)nn23)CCC1 [Example 51, 1-(2-chloro-7-(1-(methoxymethyl)cyclobutyl)pyrazolo[1,5-a]pyrimidin-6-yl)-3-(2-(trifluoromethyl)pyridin-4-yl)urea] |
| 117 | 94 | – | – | O=C(Nc1cnc(-n2nccn2)c(C(F)(F)F)c1)Nc1cnc2cc(Cl)nn2c1C1CCCO1 (centres unmarked) [Example 54, 1-(6-(2H-1,2,3-triazol-2-yl)-5-(trifluoromethyl)pyridin-3-yl)-3-(2-chloro-7-(tetrahydrofuran-2-yl)pyrazolo[1,5-a]pyrimidin-6-yl)urea] |
| 218 | – | – | – | C[C@H](c1c(NC(=O)Nc2cnc(-n3nccn3)c(Cl)c2)cnc2cc(Cl)nn12)N(C)C [Example 121, (R)-1-(5-chloro-6-(2H-1,2,3-triazol-2-yl)pyridin-3-yl)-3-(2-chloro-7-(1-(dimethylamino)ethyl)pyrazolo[1,5-a]pyrimidin-6-yl)urea] |
| 44 | 109 | – | – | COc1ncc(NC(=O)Nc2cnc3cc(Cl)nn3c2[C@H](C)OC)cc1Cl [Example 9, (S)-1-(5-chloro-6-methoxypyridin-3-yl)-3-(2-chloro-7-(1-methoxyethyl)pyrazolo[1,5-a]pyrimidin-6-yl)urea] |
| 408 | – | 30 | – | CC(C)c1c(NC(=O)Nc2cc(Cl)c(-n3nccn3)nc2OC2CCN(C)C2)cnc2cc(Cl)nn12 (centres unmarked) [Example 33, 1-(5-chloro-2-((1-methylpyrrolidin-3-yl)oxy)-6-(2H-1,2,3-triazol-2-yl)pyridin-3-yl)-3-(2-chloro-7-isopropylpyrazolo[1,5-a]pyrimidin-6-yl)urea] |
| 687 | – | – | – | CN1CCOC(c2c(NC(=O)Nc3cnc(-n4nccn4)c(Cl)c3)cnc3cc(Cl)nn23)C1 (centres unmarked) [Example 116, 1-(5-chloro-6-(2H-1,2,3-triazol-2-yl)pyridin-3-yl)-3-(2-chloro-7-(4-methylmorpholin-2-yl)pyrazolo[1,5-a]pyrimidin-6-yl)urea] |
| 132 | 52 | – | – | CO[C@@H](C)c1c(NC(=O)Nc2ccnc(C(F)(F)F)c2)cnc2cc(C)nn12 [Example 6, (S)-1-(7-(1-methoxyethyl)-2-methylpyrazolo[1,5-a]pyrimidin-6-yl)-3-(2-(trifluoromethyl)pyridin-4-yl)urea] |
| 356 | – | – | – | COCCO[C@@H](C)c1c(NC(=O)Nc2ccnc(C(F)(F)F)c2)cnc2cc(Cl)nn12 [Example 41, (S)-1-(2-chloro-7-(1-(2-methoxyethoxy)ethyl)pyrazolo[1,5-a]pyrimidin-6-yl)-3-(2-(trifluoromethyl)pyridin-4-yl)urea] |
| 43 | 17 | – | – | C[C@@H](c1c(NC(=O)Nc2cnc(-n3nccn3)c(Cl)c2)cnc2cc(Cl)nn12)N(C)C [Example 122, (S)-1-(5-chloro-6-(2H-1,2,3-triazol-2-yl)pyridin-3-yl)-3-(2-chloro-7-(1-(dimethylamino)ethyl)pyrazolo[1,5-a]pyrimidin-6-yl)urea] |
| 829 | – | – | – | CN1CCOCC1Cc1c(NC(=O)Nc2cnc(-n3nccn3)c(Cl)c2)cnc2cc(Cl)nn12 (centres unmarked) [Example 83, 1-(5-chloro-6-(2h-1,2,3-triazol-2-yl)pyridin-3-yl)-3-(2-chloro-7-((4-methylmorpholin-3-yl)methyl)pyrazolo[1,5-a]pyrimidin-6-yl)urea] |
| – | 112 | 28 | 256 | CC(C)c1c(NC(=O)Nc2cnc(-n3cc(CN)cn3)c(Cl)c2)cnc2cc(Cl)nn12 [Example 118, 1-(6-(4-(aminomethyl)-1H-pyrazol-1-yl)-5-chloropyridin-3-yl)-3-(2-chloro-7-isopropylpyrazolo[1,5-a]pyrimidin-6-yl)urea] |
